# From PMC5962729 (Frontiers in Pharmacology, 2018)
# Tests used:
# BSEP = test: Expression level of BSEP in rat liver by UHPLC-MS/MS; assay type: in vivo
# Description: (§1) Male Sprague Dawley rats (230 ± 20 g, 6–8 weeks of age) were purchased from B&K Laboratory Animal, Corp. Ltd. (Shanghai, China) and fed in the Laboratory Animal Center of Shanghai University of Traditional Chinese Medicine. All rats were allowed to acclimatize for 3 days before experimentation. The rats were randomly divided into six groups (n = 5 for each group). […] Moreover, groups 1 and 2 were intragastrically treated with physiological saline (0.9%) at a dose of 1 mL/100 g. […] At the end of the experiment, all rats were euthanized by CO2 inhalation. The serum samples were stored at -70°C until analysis, and liver samples were isolated and stored at -70°C for further analysis, whereas the central part of the right large lobe of the liver was used for histological examination.
# (§2) Biotransformation of xenobiotics and endogenous compounds is a crucial step in the absorption and elimination of potentially harmful substances from the human body, a process that could be affected by the levels of pharmacokinetic enzymes and transporter proteins. […]
# (§3) Total membrane protein was isolated (in triplicate) from liver tissue according to the Native Membrane Protein Extraction Kit protocol. Subsequently, protein concentrations were determined by applying the BCA Protein Assay Kit. […]
# UGT1A1 = test: Expression level of UGT1A1 in rat liver by UHPLC-MS/MS; assay type: in vivo
# Description: as §1, §2, §3
# OATP1A2 = test: Expression level of OATP1A2 in rat liver by UHPLC-MS/MS; assay type: in vivo
# Description: (§4) Male Sprague Dawley rats (230 ± 20 g, 6–8 weeks of age) were purchased from B&K Laboratory Animal, Corp. Ltd. (Shanghai, China) and fed in the Laboratory Animal Center of Shanghai University of Traditional Chinese Medicine. All rats were allowed to acclimatize for 3 days before experimentation. The rats were randomly divided into six groups (n = 5 for each group). […] The rats in groups 4, 5, and 6 were intragastrically administered YCHD every 24 h for 10 consecutive days. The rats in group 3 were orally administered UDCA at a dose of 100 mg/kg every 24 h for 10 consecutive days, which is well-documented to treat induced liver injury and cholestasis ([Chen et al., 2016]; [Cao et al., 2017]). Moreover, groups 1 and 2 were intragastrically treated with physiological saline (0.9%) at a dose of 1 mL/100 g. […] At the end of the experiment, all rats were euthanized by CO2 inhalation. The serum samples were stored at -70°C until analysis, and liver samples were isolated and stored at -70°C for further analysis, whereas the central part of the right large lobe of the liver was used for histological examination. […]
# [1] = system: ANIT-induced cholestatic liver injury; test: Liver histopathological examination (H&E) in ANIT-induced cholestatic rats; assay type: in vivo, rat; conditions: UDCA + ANIT 50 mg/kg
# Description: as §1
# NTCP = test: Expression level of NTCP in rat liver by UHPLC-MS/MS; assay type: in vivo
# Description: as §4
# MDR1 = test: Expression level of MDR1 in rat liver by UHPLC-MS/MS; assay type: in vivo
# Description: as §1, §2, §3
# OCT1 = test: Expression level of OCT1 in rat liver by UHPLC-MS/MS; assay type: in vivo
# Description: as §1, §2, §3
# MATE1 = test: Expression level of MATE1 in rat liver by UHPLC-MS/MS; assay type: in vivo
# Description: Male Sprague Dawley rats (230 ± 20 g, 6–8 weeks of age) were purchased from B&K Laboratory Animal, Corp. Ltd. (Shanghai, China) and fed in the Laboratory Animal Center of Shanghai University of Traditional Chinese Medicine. All rats were allowed to acclimatize for 3 days before experimentation. The rats were randomly divided into six groups (n = 5 for each group). […]
# Biotransformation of xenobiotics and endogenous compounds is a crucial step in the absorption and elimination of potentially harmful substances from the human body, a process that could be affected by the levels of pharmacokinetic enzymes and transporter proteins. […] Previous methods of protein quantification are immunological, such as immunoblotting ([Zhang et al., 2016]), […] and two-dimensional electrophoresis ([Bruschi et al., 2015]). […] A milestone in quantitative protein analysis was the introduction of mass spectrometry-based analysis using shotgun proteomic assays with relative protein quantification, which has advantages in terms of absolute accuracy, stability, operability, and efficiency over traditional quantitative methods ([Wang et al., 2015]). […]
# [2] = UDCA group, ANIT-treated rats, mean ± S.D.
# [3] = UDCA-treated cholestatic rats, liver, as compared with the control group, p < 0.05
structure (smiles),measurement,setting,value
"C[C@H](CCC(=O)O)[C@H]1CC[C@H]2[C@@H]3[C@@H](O)C[C@@H]4C[C@H](O)CC[C@]4(C)[C@H]3CC[C@]12C [UDCA, Ursodeoxycholic acid]",Bsep expression level in rat liver,BSEP; [2],18.1±2.56 fmol/μg protein
same,"BSEP level, fold higher",BSEP; [3],1.2 fold
same,Ugt1a1 expression level in rat liver,UGT1A1; [2],6.06±1.34 fmol/μg protein
same,"UGT1A1 level, fold higher","UGT1A1; UDCA-treated cholestatic rats, liver, as compared with the control group, p < 0.01",2.1 fold
same,Oatp1a2 expression level in rat liver,OATP1A2; [2],1.27±0.18 fmol/μg protein
same,"OATP1A2 level, fold higher",OATP1A2; [3],1.5 fold
same,liver histopathology (H&E),[1],hepatocyte hydropic degeneration with less neutrophil infiltration and a milder degree of bile duct epithelial damage
same,Ntcp expression level in rat liver,NTCP; [2],4.22±1.51 fmol/μg protein
same,"NTCP level, fold higher",NTCP; [3],2.2 fold
same,Mdr1 expression level in rat liver,MDR1; [2],0.67±0.32 fmol/μg protein
same,"MDR1 level, fold higher",MDR1; [3],2.4 fold
same,Oct1 expression level in rat liver,OCT1; [2],2.22±0.59 fmol/μg protein
same,"OCT1 level, fold higher",OCT1; [3],2.1 fold
same,Mate1 expression level in rat liver,MATE1; [2],3.43±1.38 fmol/μg protein
same,"MATE1 expression upregulated, fold","MATE1; UDCA-treated cholestatic rats, liver, not statistically significant",1.7 fold
